Patent publication US20160362393A1, “EN[…] AGENT” (THE UNIVERSITY OF TOKYO, priority 2014, published 2016)

tested on: 1st-stage larvae of Haemonchus contortus; experiment: Test for effect on motion of larvae of Haemonchus nematode (Haemonchus contortus); type: cell-based; details: 20 larvae per well, 27° C./95% RH for 4 days, corrected for DMSO negative control, duplicate
Experimental: Test for Effect on Motion of Larvae of Haemonchus Nematode (Haemonchus contortus)
The compound of the present invention was prepared as solutions in 100% DMSO at the final concentrations of 50 ppm, 5 ppm, 0.5 ppm, 0.05 ppm and 0.005 ppm. DMSO stands for dimethyl sulfoxide.
A larval suspension containing 1st-stage larvae of Haemonchus contortus harvested by the Baermann technique (for example, see K. Nakazono et al., “Inclination of Baermann funnel wall and efficiency of nematode extraction” Proc. Assoc. Pl. Prot. Kyushu 33; 126-130 (1987) was placed at a density of 20 larvae per well in a test place, and 0.5 μL/well of the test solution containing the compound of the present invention diluted to a predetermined concentration was added to the test plate. The plate was kept, under the conditions of 27° C./95% RH for 4 days. In the test, ivermectin was used for the positive control and DMSO was used for the negative control.
The motor ability of the larvae was examined with an automatic analyzer equipped with an LCD camera. The inhibitory effect on the motion of the larvae in each treatment plot was corrected based on the inhibitory effect in the plot treated with DMSO only for the negative control. The EC50 value was calculated from the data on the corrected inhibitory effect on the motion of the larvae, and graded according to the criteria shown below.
The test was conducted in duplicate per plot.

Structure (SMILES) | EC50 value, inhibitory effect on the motion of the larvae (graded)
O=C(NCCc1ccc(Oc2ccc(C(F)(F)F)cn2)cc1Cl)c1nccnc1C(F)(F)F [Compound 1-2] | C or higher
O=C(NCCc1ccc(Oc2nc3ccc(Cl)cc3s2)cc1Cl)c1nccnc1C(F)(F)F [Compound 1-18] | C or higher
O=C(NCCc1ccc(Oc2ncc(Br)cc2Cl)cc1Cl)c1nccnc1C(F)(F)F [Compound 1-4] | C or higher
O=C(NCC1(c2ccc(Oc3ncc(Cl)cc3Cl)cc2Cl)CC1)c1nccnc1C(F)(F)F [Compound 1-30] | C or higher
O=C(NCC1(c2ccc(Oc3ccc(C(F)(F)F)cn3)cc2Cl)CC1)c1nccnc1C(F)(F)F [Compound 1-29] | C or higher
O=C(NCCc1ccc(-c2ccncc2)cc1Cl)c1nccnc1C(F)(F)F [Compound 1-36] | C or higher
O=C(NCCc1ccc(-c2ccccc2)cc1Cl)c1nccnc1C(F)(F)F [Compound 1-35] | C or higher
CC(CNC(=O)c1nccnc1C(F)(F)F)c1ccc(Oc2ccc(C(F)(F)F)cn2)cc1Cl (racemic) [Compound 1-23] | C or higher
COC(CNC(=O)c1nccnc1C(F)(F)F)c1ccc(Oc2nc3ccccc3s2)cc1Cl (racemic) [Compound 1-41] | C or higher
O=C(NCCc1ccc(Oc2cnc3ccccc3n2)cc1Cl)c1nccnc1C(F)(F)F [Compound 1-16] | C or higher
Cc1cnc(Cl)nc1Oc1ccc(CCNC(=O)c2nccnc2C(F)(F)F)c(Cl)c1 [Compound 1-13] | C or higher
CC(CNC(=O)c1nccnc1C(F)(F)F)c1ccc(Oc2ncc(C(F)(F)F)cc2Cl)cc1Cl (racemic) [Compound 1-22] | C or higher
COC(CNC(=O)c1nccnc1C(F)(F)F)c1ccc(Oc2ncc(Cl)cc2Cl)cc1Cl (racemic) [Compound 1-40] | C or higher
O=C(NCCc1ccc(Oc2ccnc(Cl)n2)cc1Cl)c1nccnc1C(F)(F)F [Compound 1-10] | C or higher
COc1cc(OC)nc(Oc2ccc(CCNC(=O)c3nccnc3C(F)(F)F)c(Cl)c2)n1 [Compound 1-8] | C or higher
O=C(NCCc1ccc(Oc2ccc(C(F)(F)F)cc2)cc1Cl)c1nccnc1C(F)(F)F [Compound 1-21] | C or higher
COC(CNC(=O)c1nccnc1C(F)(F)F)c1ccc(Oc2ncc(C(F)(F)F)cc2Cl)cc1Cl (racemic) [Compound 1-38] | C or higher
O=C(NCCc1ccc(Oc2cc(Cl)nc(Cl)n2)cc1Cl)c1nccnc1C(F)(F)F [Compound 1-11] | C or higher

Structure (SMILES) | EC50 value, inhibitory effect on the motion of the larvae (graded)
O=C(NCCc1ccc(Oc2nc3ccccc3o2)cc1Cl)c1nccnc1C(F)(F)F [Compound 1-19] | C or higher
O=C(NCCc1ccc(-c2cc(F)cc(F)c2)cc1Cl)c1nccnc1C(F)(F)F [Compound 1-33] | C or higher
O=C(NCCc1ccc(Oc2cnccn2)cc1Cl)c1nccnc1C(F)(F)F [Compound 1-7] | C or higher
CC(C)(CNC(=O)c1nccnc1C(F)(F)F)c1ccc(Oc2ccc(C(F)(F)F)cn2)cc1Cl [Compound 1-26] | C or higher
O=C(NCCc1ccc(-c2ccc(C(F)(F)F)cc2)cc1Cl)c1nccnc1C(F)(F)F [Compound 1-31] | C or higher
CC(C)(CNC(=O)c1nccnc1C(F)(F)F)c1ccc(Oc2ncc(Cl)cc2Cl)cc1Cl [Compound 1-27] | C or higher
O=C(NCCc1ccc(-c2cccc(C(F)(F)F)c2)cc1Cl)c1nccnc1C(F)(F)F [Compound 1-32] | C or higher
COC(CNC(=O)c1nccnc1C(F)(F)F)c1ccc(Oc2ccc(C(F)(F)F)cn2)cc1Cl (racemic) [Compound 1-39] | C or higher
O=C(NCCc1ccc(-c2cccnc2)cc1Cl)c1nccnc1C(F)(F)F [Compound 1-37] | C or higher
O=C(NCCc1ccc(Oc2nc3ccccc3s2)cc1Cl)c1nccnc1C(F)(F)F [Compound 1-17] | C or higher
O=C(NCCc1ccc(Oc2ncc(Cl)cc2Cl)cc1Cl)c1nccnc1C(F)(F)F [Compound 1-3] | C or higher
O=C(NCC1(c2ccc(Oc3ncc(C(F)(F)F)cc3Cl)cc2Cl)CC1)c1nccnc1C(F)(F)F [Compound 1-28] | C or higher
O=C(NCCc1ccc(Oc2ccc3ccccc3n2)cc1Cl)c1nccnc1C(F)(F)F [Compound 1-15] | C or higher
COC(CNC(=O)c1nccnc1C(F)(F)F)c1ccc(Oc2cccnc2)cc1Cl (racemic) [Compound 1-45] | C or higher
Cc1cc(Oc2ccc(CCNC(=O)c3nccnc3C(F)(F)F)c(Cl)c2)nc(Cl)n1 [Compound 1-12] | C or higher
CC(CNC(=O)c1nccnc1C(F)(F)F)c1ccc(Oc2ncc(Cl)cc2Cl)cc1Cl (racemic) [Compound 1-24] | C or higher
CC(C)(CNC(=O)c1nccnc1C(F)(F)F)c1ccc(Oc2ncc(C(F)(F)F)cc2Cl)cc1Cl [Compound 1-25] | C or higher
